pIC50: −log10 of the molar value. Where two headings read alike, the source gives them in different places.
Columns and labels:
[1] = biological target: T1, human LTA4H (Homo sapiens, UniProt P09960); assay: Human LTA4H enzyme assay (Arg-AMC substrate); format: biochemical; settings: Arg-AMC 600 μM, 9 nM human LTA4H, 15 min pre-incubation; mean values of at least 3 measurements; read-out: ArgAMC IC50
T1 sequence (P09960 1-611): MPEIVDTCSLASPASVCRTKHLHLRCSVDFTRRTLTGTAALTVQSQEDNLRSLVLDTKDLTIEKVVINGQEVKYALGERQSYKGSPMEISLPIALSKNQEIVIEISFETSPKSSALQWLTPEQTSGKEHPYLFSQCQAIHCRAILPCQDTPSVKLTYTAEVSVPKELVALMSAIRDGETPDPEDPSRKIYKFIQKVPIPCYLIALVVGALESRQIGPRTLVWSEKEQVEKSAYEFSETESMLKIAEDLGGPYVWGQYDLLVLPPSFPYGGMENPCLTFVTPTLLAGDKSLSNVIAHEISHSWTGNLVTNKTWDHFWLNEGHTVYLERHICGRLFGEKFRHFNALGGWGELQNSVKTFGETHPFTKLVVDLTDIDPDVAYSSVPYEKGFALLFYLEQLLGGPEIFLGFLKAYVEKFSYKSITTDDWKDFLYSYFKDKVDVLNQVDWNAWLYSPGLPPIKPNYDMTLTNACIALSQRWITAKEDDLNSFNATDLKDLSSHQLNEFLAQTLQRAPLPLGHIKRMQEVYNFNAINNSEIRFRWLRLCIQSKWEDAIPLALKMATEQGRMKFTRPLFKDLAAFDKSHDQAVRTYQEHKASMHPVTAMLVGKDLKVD
Protocol: a) Human LTA4H Enzyme Assay:
[…] (LTA4H) catalyzes the vinylogous hydrolysis of the epoxide, leukotriene A4 (LTA4) into the pro-inflammatory mediator LTB4.
For compound testing, compounds are delivered as 10 mM stock solutions in 90% DMSO (10% water) in matrix tubes. […] A final substrate concentration of 600 μM, which is around the KM value of Arg-AMC, at a final enzyme concentration of 9 nM is chosen. Upon addition of the substrate, the plate is immediately placed in a fluorescence reader and the fluorescence is measured every 10 minutes for 60 minutes using the filter setting λ excitation=380 nm and A emission=460 nm. […] Raw data is converted to rate (moles per minute) using the AMC calibration curve calculated from the AMC standards. The data is analyzed in GraphPad Prism (GraphPad software Inc.) using non-linear regression to determine IC50 values of LTA4H inhibitors.

[2] = system: LTB4 biosynthesis in human whole blood; assay: Human whole blood assay (hWB), inhibition of LTB4 biosynthesis; format: cell-based; settings: read-out: hWB IC50
Protocol: b) Human Whole Blood Assay:
Compounds are tested in a human whole blood assay (hWB) to test their ability to inhibit LTB4 biosynthesis in a human cellular system. To this end, fresh blood is collected in heparinized vacutainers by venipuncture from volunteers. Blood is diluted 1:3 with RPM (Roswell Park Memorial Institute) medium and aliquots of 200 μL are transferred to 96-well round bottom cell culture plates. For compound testing, compounds are delivered as 10 mM stock solutions in 90% DMSO in matrix tubes. […] 4 μL of compound dilution or vehicle is added to 200 μL of blood and incubated for 4 hours at 37° C. in a humidified incubator. […] Incubation is terminated by centrifugation at 300 g for 10 min at 22° C. Plasma supernatant is taken and transferred to a 96 well plate for eicosanoid determination by ELISA (Assay designs) according to the manufacturer's protocol after 1:20 dilution in assay buffer. The data is analyzed in GraphPad Prism (GraphPad software Inc.) using non-linear regression to determine IC50 values of LTA4H inhibitors.

[3] = human blood diluted 1:3, 4 hours with compound, 10 μg/ml A23187 for 15 min, eicosanoid by ELISA

| pIC50 [1] | pIC50 [2, 3] | Compound | pIC50 ([2]; Homo sapiens) |
| --- | --- | --- | --- |
| 8.51 | 6.91 | N[C@H](CO)Cn1ccc(-c2ccc(Oc3ncc(-c4ccn[nH]4)cc3F)cn2)n1 [Example 21, (S)-2-amino-3-(3-(5-((3-fluoro-5-(1H-pyrazol-5-yl)pyridin-2-yl)oxy)pyridin-2-yl)-1H-pyrazol-1-yl)propan-1-ol] | – |
| 8.54 | 7.10 | N[C@H](CO)Cc1nc(-c2cccc([C@@H]3COc4ccccc4O3)c2)no1 [Example 15, (S)-2-amino-3-(3-(3-((R)-2,3-dihydrobenzo[b][1,4]dioxin-2-yl)phenyl)-1,2,4-oxadiazol-5-yl)propan-1-ol] | – |
| – | 7.29 | N[C@H](CO)Cc1nc(-c2ccc(Oc3ccc(-c4ccn[nH]4)cn3)cc2)no1 [Example 13, (S)-3-(3-(4-((5-(1H-Pyrazol-5-yl)pyridin-2-yl)oxy)phenyl)-1,2,4-oxadiazol-5-yl)-2-aminopropan-1-ol] | – |
| 8.68 | 7.14 | N[C@H](CO)Cc1nc(-c2cccc(Oc3ccc(Cl)cn3)c2)no1 [Example 02, (S)-2-amino-3-(3-(3-((5-chloropyridin-2-yl)oxy)phenyl)-1,2,4-oxadiazol-5-yl)propan-1-ol] | – |
| 8.49 | 7.12 | N[C@H](CO)Cn1nnc(-c2ccc(Oc3ccc(-c4ccn[nH]4)cn3)cc2)n1 [Example 20, (S)-3-(5-(4-((5-(1H-pyrazol-3-yl)pyridin-2-yl)oxy)phenyl)-2H-tetrazol-2-yl)-2-aminopropan-1-ol] | – |
| 8.20 | 6.85 | N[C@H](CO)Cc1nc(-c2cccc(Oc3ccc(C(F)(F)F)cn3)c2)no1 [Example 10, (S)-2-amino-3-(3-(3-((5-(trifluoromethyl)pyridin-2-yl)oxy)phenyl)-1,2,4-oxadiazol-5-yl)propan-1-ol] | – |
| 8.03 | 6.29 | N[C@H](CO)Cc1noc(-c2ccc(Oc3ccc(Cl)cn3)cc2)n1 [Example 06] | – |
| 8.62 | 6.64 | N[C@H](CO)Cc1nc(-c2ccc(Oc3ccc(Cl)cn3)cc2)no1 [Example 16, (S)-2-amino-3-(3-(4-((5-chloropyridin-2-yl)oxy)phenyl)-1,2,4-oxadiazol-5-yl)propan-1-ol] | – |
| – | 6.93 | N[C@H](CO)Cc1nc(-c2ccc(Oc3ncc(-c4ccn[nH]4)cc3F)cc2)no1 [Example 07] | – |
| 8.60 | 7.13 | N[C@H](CO)Cc1nc(-c2cccc(Oc3ccc(-c4ccn[nH]4)cn3)c2)no1 [Example 09, (S)-3-(3-(3-((5-(1H-pyrazol-5-yl)pyridin-2-yl)oxy)phenyl)-1,2,4-oxadiazol-5-yl)-2-aminopropan-1-ol] | – |
| – | 7.04 | N[C@H](CO)Cc1nc(-c2cccc([C@H]3COc4ccccc4O3)c2)no1 [Example 01, (S)-2-amino-3-(3-(3-((S)-2,3-dihydrobenzo[b][1,4]dioxin-2-yl)phenyl)-1,2,4-oxadiazol-5-yl)propan-1-ol] | – |
| – | 7.36 | N[C@H](CO)Cc1nc(-c2cccc([C@@H]3COc4cccnc4O3)c2)no1 [Example 11, (S)-2-amino-3-(3-(3-((R)-2,3-dihydro-[1,4]dioxino[2,3-b]pyridin-3-yl)phenyl)-1,2,4-oxadiazol-5-yl)propan-1-ol] | – |
| – | 7.00 | N[C@H](CO)Cc1nc(-c2cccc(Oc3ccc(OC(F)F)cn3)c2)no1 [Example 03, (S)-2-amino-3-(3-(3-((5-(difluoromethoxy)pyridin-2-yl)oxy)phenyl)-1,2,4-oxadiazol-5-yl)propan-1-ol] | – |

Second part, the compound before the results:

| Compound | pIC50 [1] | pIC50 [2, 3] | pIC50 ([2]; Homo sapiens) |
| --- | --- | --- | --- |
| N[C@H](CO)Cc1nc(-c2ccc(Oc3ccc(C(F)(F)F)cn3)cc2)no1 [Example 04, (S)-2-amino-3-(3-(4-((5-(trifluoromethyl)pyridin-2-yl)oxy)phenyl)-1,2,4-oxadiazol-5-yl)propan-1-ol] | 7.93 | 6.49 | – |
| N[C@@H](CO)Cn1nnc(-c2ccc(Oc3ccc(Cl)cn3)cc2)n1 [Example 31, (R)-2-Amino-3-(5-(4-((5-chloropyridin-2-yl)oxy)phenyl)-2H-tetrazol-2-yl)propan-1-ol] | 8.35 | 6.75 | – |
| N[C@H](CO)Cn1nnc(-c2ccc(Oc3ncc(Cl)cc3F)cc2)n1 [Example 29, (S)-2-Amino-3-(5-(4-((5-chloro-3-fluoropyridin-2-yl)oxy)phenyl)-2H-tetrazol-2-yl)propan-1-ol] | – | 6.79 | – |
| N[C@H](CO)Cn1nnc(-c2ccc(Oc3ccc(Cl)cc3)nc2)n1 [Example 35, (S)-2-Amino-3-(5-(6-(4-chlorophenoxy)pyridin-3-yl)-2H-tetrazol-2-yl)propan-1-01] | 7.80 | – | – |
| N[C@H](CO)Cn1nnc(-c2ccc(Oc3ccc(Cl)cc3)cc2)n1 [Example 27, (S)-2-Amino-3-(5-(4-(4-chlorophenoxy)phenyl)-2H-tetrazol-2-yl)propan-1-ol] | 8.48 | 6.67 | – |
| NC(CO)Cc1nnn(-c2ccc(Oc3ncc(Cl)cc3F)cc2)n1 (racemic) [Example 39, 2-Amino-3-(2-(4-((5-chloro-3-fluoropyridin-2-yl)oxy)phenyl)-2H-tetrazol-5-yl)propan-1-ol] | 8.66 | 7.20 | – |
| CC(O)[C@@H](N)Cc1nc(-c2ccc(Oc3ncc(Br)cc3F)cc2)no1 (mixture of isomers) [Example 18, (3S)-3-amino-4-(3-(4-((5-bromo-3-fluoropyridin-2-yl)oxy)phenyl)-1,2,4-oxadiazol-5-yl)butan-2-ol] | 8.21 | 6.46 | – |
| N[C@H](CO)Cn1ccc(-c2cccc(Oc3ncc(Cl)cc3F)c2)n1 [Example 24, (S)-2-amino-3-(3-(3-((5-chloro-3-fluoropyridin-2-yl)oxy)phenyl)-1H-pyrazol-1-yl)propan-1-ol] | – | 6.42 | – |
| N[C@H](CO)Cn1nnc(-c2ccc(Oc3ncc(-c4ncco4)cc3F)cc2)n1 [Example 38, (2S)-2-amino-3-[5-(4-[[3-fluoro-5-(1,3-oxazol-2-yl)pyridin-2-yl]oxy]phenyl)-2H-1,2,3,4-tetrazol-2-yl]propan-1-ol] | 8.13 | – | – |
| N[C@H](CO)Cn1nnc(-c2ccc(Oc3ccc(C4CC4)cn3)cc2)n1 [Example 28, (S)-2-Amino-3-(5-(4-((5-cyclopropylpyridin-2-yl)oxy)phenyl)-2H-tetrazol-2-yl)propan-1-ol] | 8.21 | 6.30 | – |
| N[C@H](CO)Cn1ccc(-c2ccc(Oc3ccc(-c4ccn[nH]4)cn3)cc2)n1 [Example 36] | 8.54 | – | 7.22 |
| N[C@H](CO)Cn1nnc(-c2ccc(Oc3ccc(Br)cn3)cc2)n1 [Example 33, (S)-2-Amino-3-(5-(4-((5-bromopyridin-2-yl)oxy)phenyl)-2H-tetrazol-2-yl)propan-1-ol] | 8.62 | 6.54 | – |
| N[C@H](CO)Cc1nc(-c2ccc(Oc3ccc(OC(F)F)cn3)cc2)no1 [Example 05, (S)-2-amino-3-(3-(4-((5-(difluoromethoxy)pyridin-2-yl)oxy)phenyl)-1,2,4-oxadiazol-5-yl)propan-1-ol] | 7.55 | 5.73 | – |
| N[C@H](CO)Cn1nnc(-c2cccc([C@@H]3COc4cccnc4O3)c2)n1 [Example 14, (S)-2-amino-3-(5-(3-((R)-2,3-dihydro-[1,4]dioxino[2,3-b]pyridin-3-yl)phenyl)-2H-tetrazol-2-yl)propan-1-ol] | 8.64 | 7.41 | – |
| N[C@@H](CO)Cn1nnc(-c2ccc(Oc3ncc(Cl)cc3F)cc2)n1 [Example 30, (R)-2-Amino-3-(5-(4-((5-chloro-3-fluoropyridin-2-yl)oxy)phenyl)-2H-tetrazol-2-yl)propan-1-ol] | – | 7.16 | – |
| N[C@H](CO)Cn1cc(-c2ccc(Oc3ncc(Cl)cc3F)cc2)cn1 [Example 25, (S)-2-amino-3-(4-(4-((5-chloro-3-fluoropyridin-2-yl)oxy)phenyl)-1H-pyrazol-1-yl)propan-1-ol] | 6.80 | – | – |
